From patent US20030032632A1, “Pharmaceutical aerosol formulation of salmeterol and fluticasone propionate” (priority 1999, published 2003) come the findings set out here.

Molecules are shown by their SMILES.

Data set [1] can be described thus: Solubility in ethanol/HFA134a and ethanol/HFA227 mixtures. It counts as physicochemical. The settings on record: mixtures of ethanol/HFA134a and ethanol/HFA227.
Data set [2] is described as follows: Chemical degradation on storage in ethanol/HFA134a solution. The class given is physicochemical.

`O=C(O)c1ccc2ccccc2c1O.OCc1cc(C(O)CNCCCCCCOCCCCc2ccccc2)ccc1O` (stereo not shown) [R-salmeterol xinafoate]: the “solubility relative to racemic salmeterol xinafoate” value in data set [1] is given as “significantly more soluble”.
In the case of `CCC(=O)O[C@]1(C(=O)SCF)[C@H](C)C[C@H]2[C@@H]3C[C@H](F)C4=CC(=O)C=C[C@]4(C)[C@@]3(F)[C@@H](O)C[C@@]21C` [fluticasone propionate, (6a, 11b, 16a, 17a)-6,9-difluoro-11-hydroxy-16-methyl-3-oxo-17-(1-oxopropoxy) androsta-1,4-diene-17-carbothioic acid, S-fluoromethyl ester], the “chemical degradation on storage” value in data set [2] is listed as “quite stable to chemical degradation”.
For `OCc1cc(C(O)CNCCCCCCOCCCCc2ccccc2)ccc1O` (stereo not drawn) [salmeterol base, 4-hydroxy-α^1-[[[6-(4-phenylbutoxy)hexyl]amino]methyl]-1,3-benzenedimethanol], the “solubility relative to racemic salmeterol xinafoate” value in data set [1] was “substantially more soluble”.
As for `OCc1cc(C(O)CNCCCCCCOCCCCc2ccccc2)ccc1O` (stereo not drawn) [salmeterol, 4-hydroxy-α^1-[[[6-(4-phenylbutoxy)hexyl]amino]methyl]-1,3-benzenedimethanol], the “chemical degradation on storage” value in data set [2] is “shows a tendency to exhibit chemical degradation”.
